From patent publication US5990144A, “4-aminoalkoxy-1,3-dihydrobenzoimidazol-2-one dopamine autoreceptor agonists” (American Home Products Corporation, priority 1998, dated 1999)

Assays:
dopamine D-2 receptor = target: T1, dopamine D-2 receptor (Rattus norvegicus, UniProt P61169); assay: Affinity for dopamine D-2 receptor, 3H-spiroperidol (Spiper.) binding, homogenized limbic brain tissue; details: read-out: IC50 (nM) D2 Spiper
T1 construct: homogenized limbic brain tissue; from tissue; host or cells: limbic brain tissue (homogenate)
Procedure: High affinity for the dopamine D-2 receptor was established by the standard experimental test procedure of Fields, et al., Brain Res., 136, 578 (1977) and Yamamura et al., eds., Neurotransmitter Receptor Binding, Raven Press, N.Y. (1978) wherein homogenized limbic brain tissue is incubated with ^3 H-spiroperidol (Spiper.) and various concentrations of test compound, filtered and washed and shaken with Hydrofluor scintillation cocktail (National Diagnostics) and counted in a Packard 460 CD scintillation counter.

[1] = target: T2, D2 (dopamine autoreceptor) (Rattus norvegicus, UniProt P61169); assay: Affinity for dopamine autoreceptor (D2 high-affinity agonist state), 3H-quinpirole binding, rat striatal brain tissue; details: read-out: IC50 (nM) D2 Quin.
T2 construct: homogenized rat striatal brain tissue; from tissue; host or cells: rat striatal brain tissue (homogenate)
Procedure: Affinity for the dopamine autoreceptor was established by a modification of the standard experimental test procedure of Seemen and Schaus, European Journal of Pharmacology 203: 105-109, 1991, wherein homogenized rat striatal brain tissue is incubated with ^3 H-quinpirole (Quin.) and various concentrations of test compound, filtered and washed and counted in a Betaplate scintillation counter.

T2 sequence (P61169 whole entry): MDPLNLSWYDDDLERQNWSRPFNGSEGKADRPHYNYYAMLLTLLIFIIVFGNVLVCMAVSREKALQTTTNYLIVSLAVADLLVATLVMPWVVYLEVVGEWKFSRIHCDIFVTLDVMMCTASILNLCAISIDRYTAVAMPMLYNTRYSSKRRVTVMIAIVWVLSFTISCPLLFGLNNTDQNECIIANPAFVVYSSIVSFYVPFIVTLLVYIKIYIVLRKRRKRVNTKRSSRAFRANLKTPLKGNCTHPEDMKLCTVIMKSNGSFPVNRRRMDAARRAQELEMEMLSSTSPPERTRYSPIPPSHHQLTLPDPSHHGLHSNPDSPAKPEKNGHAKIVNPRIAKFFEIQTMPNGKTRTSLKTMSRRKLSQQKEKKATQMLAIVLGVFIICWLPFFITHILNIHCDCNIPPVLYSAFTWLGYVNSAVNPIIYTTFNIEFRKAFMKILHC
T1 sequence (P61169 whole entry): as above

SMILES | IC50 (dopamine D-2 receptor) [nM] | IC50 [1] [nM]
O=c1[nH]c2cccc(OCCNCc3ccccc3)c2[nH]1 [Example 1, 4-(2-Benzylamino-ethoxy)-1,3-dihydro-benzoimidazol-2-one] | 60.6 | 0.51
Cc1ccc(CNCCOc2cccc3[nH]c(=O)[nH]c23)cc1 [Example 2, 4-[2-(4-Methyl-benzylamino)-ethoxy]-1,3-dihydro-benzoimidazol-2-one] | 28.5 | 0.29
Cn1c(=O)[nH]c2cccc(OCCNCc3ccccc3)c21 [Example 3, 4(7)-(2-Benzylamino-ethoxy)-1-(3)-methyl-1,3-dihydro-benzoimidazol-2-one] | 1350 | 2.92
O=c1[nH]c2cccc(OCCCNCc3ccccc3)c2[nH]1 [Example 4, 4-(3-Benzylamino-propoxy)-1,3-dihydro-benzoimidazol-2-one] | 5980 | 126
O=c1[nH]c2cccc(OCCNCc3cccc4ccccc34)c2[nH]1 [Example 5, 4-{2-[(Naphthalen-1-ylmethyl)-amino]-ethoxy}-1,3-dihydro-benzoimidazol-2-one] | 38.7 | 0.6
CC(C)(C)c1ccc(CNCCOc2cccc3[nH]c(=O)[nH]c23)cc1 [Example 6, 4-[2-(4-tert-Butyl-benzylamino)-ethoxy]-1,3-dihydro-benzoimidazol-2-one] | 47.8 | 0.81
O=c1[nH]c2cccc(OCCNCc3cccs3)c2[nH]1 [Example 7, 4-{2-[(Thiophen-2-ylmethyl)-amino]-ethoxy}-1,3-dihydro-benzoimidazol-2-one] | 255 | 0.51
O=c1[nH]c2cccc(OCCNCc3ccc(Cl)cc3)c2[nH]1 [Example 8, 4-[2-(4-Chloro-benzylamino)-ethoxy]-1,3-dihydro-benzoimidazol-2-one] | 99.5 | 0.3
O=c1[nH]c2cc(Cl)cc(OCCNCc3ccccc3)c2[nH]1 [Example 9, 4-(2-Benzylamino-ethoxy)-6-chloro-1,3-dihydro-benzoimidazol-2-one] | 34.6 | 0.48
O=c1[nH]c2cc(Cl)cc(OCCNCc3cccs3)c2[nH]1 [Example 10, 6-Chloro-4-{2-[(thiophen-2-ylmethyl)-amino]-ethoxy}-1,3-dihydro-benzoimidazol-2-one] | 58 | 0.47
O=c1[nH]c2cc(Cl)cc(OCCNCc3ccsc3)c2[nH]1 [Example 11, 6-Chloro-4-{2-[(thiophen-3-ylmethyl)-amino]-ethoxy}-1,3-dihydro-benzoimidazol-2-one] | 67 | 0.31
O=c1[nH]c2cccc(OCCN3CCc4ccccc4C3)c2[nH]1 [Example 12, 4-[2-(2,3-Dihydro-1H-isoquinolin-2yl)-ethoxy]-1,3-dihydro-benzoimidazol-2-one] | 658 | 12
O=c1[nH]c2cccc(OCCNCCCc3ccccc3)c2[nH]1 [Example 13, 4-[2-(3-Phenyl-propylamine)-ethoxy]-1,3-dihydro-benzoimidazol-2-one] | 30 | 0.3
